The results in this text go back to ChEMBL document CHEMBL4219245, “Development of piperazine-based hydroxamic acid inhibitors against falcilysin, an essential malarial protease” (Bioorg Med Chem Lett, 2018).

A word on the IC50: it is the point on the concentration scale where inhibition reaches its midpoint.

One experiment has as its target T1, Falcilysin (Plasmodium falciparum (isolate 3D7), UniProt Q76NL8).
T1 sequence (Q76NL8 whole entry): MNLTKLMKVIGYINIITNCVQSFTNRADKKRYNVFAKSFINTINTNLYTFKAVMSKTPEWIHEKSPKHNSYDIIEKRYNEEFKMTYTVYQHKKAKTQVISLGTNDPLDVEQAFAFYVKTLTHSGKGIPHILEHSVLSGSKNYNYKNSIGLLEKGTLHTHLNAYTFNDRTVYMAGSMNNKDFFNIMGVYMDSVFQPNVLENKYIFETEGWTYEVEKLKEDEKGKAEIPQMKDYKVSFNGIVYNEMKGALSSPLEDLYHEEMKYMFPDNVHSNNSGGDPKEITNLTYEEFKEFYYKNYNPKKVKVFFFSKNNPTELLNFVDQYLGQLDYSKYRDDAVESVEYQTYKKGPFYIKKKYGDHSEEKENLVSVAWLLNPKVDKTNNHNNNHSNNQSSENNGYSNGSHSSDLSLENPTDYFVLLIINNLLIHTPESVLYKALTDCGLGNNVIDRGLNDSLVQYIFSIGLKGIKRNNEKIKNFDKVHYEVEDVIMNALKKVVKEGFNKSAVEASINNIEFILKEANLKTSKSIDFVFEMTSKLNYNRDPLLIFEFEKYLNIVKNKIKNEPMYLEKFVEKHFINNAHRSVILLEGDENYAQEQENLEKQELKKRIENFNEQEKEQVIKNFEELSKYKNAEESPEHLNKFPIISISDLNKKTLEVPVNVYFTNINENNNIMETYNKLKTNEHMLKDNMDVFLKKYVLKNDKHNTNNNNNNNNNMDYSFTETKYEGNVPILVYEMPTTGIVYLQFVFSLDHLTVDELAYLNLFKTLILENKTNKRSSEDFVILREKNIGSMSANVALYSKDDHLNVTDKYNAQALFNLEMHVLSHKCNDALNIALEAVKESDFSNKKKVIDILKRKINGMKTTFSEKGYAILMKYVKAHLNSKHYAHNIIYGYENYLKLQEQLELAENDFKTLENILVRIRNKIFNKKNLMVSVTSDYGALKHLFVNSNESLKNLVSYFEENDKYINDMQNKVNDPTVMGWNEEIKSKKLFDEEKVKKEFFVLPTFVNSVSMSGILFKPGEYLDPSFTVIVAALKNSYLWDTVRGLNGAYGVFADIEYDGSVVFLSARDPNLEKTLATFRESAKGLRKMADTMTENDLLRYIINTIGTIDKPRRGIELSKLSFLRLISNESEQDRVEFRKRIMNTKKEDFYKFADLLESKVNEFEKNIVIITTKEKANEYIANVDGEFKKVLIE
The experiment can be described thus: Inhibition of Plasmodium falciparum 3D7 FLN (55 to 1193 residues) expressed in Escherichia coli BL21 using Dabcyl-HKRHSFRMRG-EDANS as substrate preincubated for 5 mins followed by substrate addition measured for 10 mins by fluorescence assay.

Another experiment relates to Plasmodium falciparum. The experiment is described as follows: Parasiticidal activity against ring stage Plasmodium falciparum 3D7 infected in human RBC after 70 to 80 hrs by acridine orange staining-based assay. In kind it is functional, organism-based. To be noted: 3D7, Erythrocyte.

Consider `O=C(NO)C1CN(C(=O)c2ccccc2)CCN1S(=O)(=O)c1ccccc1` (configuration not stated), for which the values for the IC50 against Falcilysin and with Plasmodium falciparum were 40 µM and over 10 µM, respectively.

Take `COc1ccc(S(=O)(=O)N2CCN(C(=O)c3ccccc3)CC2C(=O)NO)cc1` (configuration not stated): the IC50 against Falcilysin was over 50 µM; in the experiment on Plasmodium falciparum it was over 10 µM.

As for `O=C(NO)C1CN(C(=O)c2ccc(F)cc2)CCN1S(=O)(=O)c1ccc(Br)cc1` (configuration not stated), the figures for the IC50 against Falcilysin and with Plasmodium falciparum were 16 µM and over 10 µM, respectively.

Turning to `O=C(NO)C1CN(C(=O)c2ccc(F)cc2)CCN1S(=O)(=O)c1ccccc1` (configuration not stated), the concentration for half-maximal inhibition (IC50) on Falcilysin is over 50 µM; in the experiment with Plasmodium falciparum, over 10 µM.

`O=C(NO)C1CN(C(=O)c2ccccc2)CCN1S(=O)(=O)c1ccc(Br)cc1` (configuration not stated): the figures for the IC50 against Falcilysin and in the experiment with Plasmodium falciparum were 35 µM and over 10 µM, respectively.

As for `O=C(NO)C1CN(C(=O)c2cccc(F)c2)CCN1S(=O)(=O)c1ccc(Br)cc1` (configuration not stated), the figures for the half-maximal inhibitory concentration (IC50) against Falcilysin and with Plasmodium falciparum were 31 µM and over 10 µM, respectively.

As for `O=C(NO)C1CN(C(=O)c2ccc(Cl)c(Cl)c2)CCN1S(=O)(=O)c1ccccc1` (configuration not stated), the IC50 on Falcilysin was 5 µM; in the experiment on Plasmodium falciparum, over 10 µM.

Take `O=C(NO)C1CN(C(=O)c2ccc(-c3ccccc3)cc2)CCN1S(=O)(=O)c1ccccc1` (configuration not stated): the half-inhibitory concentration (IC50) against Falcilysin was 8 µM; in the experiment with Plasmodium falciparum it was over 10 µM.

On to `CCC(=O)N1CCN(S(=O)(=O)c2ccc(Br)cc2)C(C(=O)NO)C1` (configuration not stated), for which the 50% inhibitory concentration (IC50) on Falcilysin was over 50 µM; with Plasmodium falciparum, over 10 µM.

Regarding `O=C(NO)C1CN(C(=O)c2ccc(-c3ccccc3)cc2)CCN1S(=O)(=O)c1ccc(Br)cc1` (configuration not stated), the IC50 against Falcilysin and with Plasmodium falciparum was 1.4 µM each time.

Take `O=C(NO)C1CN(C(=O)c2ccc(Br)cc2)CCN1S(=O)(=O)c1ccccc1` (configuration not stated): the IC50 was 13 µM at Falcilysin and over 10 µM in the experiment on Plasmodium falciparum.

On to `O=C(NO)C1CN(CCCO)CCN1S(=O)(=O)c1ccccc1` (configuration not stated), for which the figures for the IC50 against Falcilysin and in the experiment with Plasmodium falciparum were over 50 µM and over 10 µM, respectively.

With `O=C(NO)C1CN(C(=O)c2ccccc2Br)CCN1S(=O)(=O)c1ccccc1` (configuration not stated), the IC50 against Falcilysin is 7 µM; in the experiment on Plasmodium falciparum, over 10 µM.

Consider `COc1ccc(S(=O)(=O)N2CCN(C(=O)c3ccccc3Br)CC2C(=O)NO)cc1` (configuration not stated), for which the IC50 is 8 µM at Falcilysin and over 10 µM with Plasmodium falciparum.

As for `COc1ccc(S(=O)(=O)N2CCN(C(=O)c3cccc(Br)c3)CC2C(=O)NO)cc1` (configuration not stated), the IC50 against Falcilysin was 10 µM; in the experiment with Plasmodium falciparum, over 10 µM.

Regarding `COc1ccc(S(=O)(=O)N2CCN(C(=O)c3ccc(-c4ccccc4)cc3)CC2C(=O)NO)cc1` (configuration not stated), the IC50 against Falcilysin amounted to 10 µM; with Plasmodium falciparum it was 5 µM.

With `COc1ccc(S(=O)(=O)N2CCN(S(=O)(=O)c3ccccc3)CC2C(=O)NO)cc1` (configuration not stated), the concentration for half-maximal inhibition (IC50) on Falcilysin is over 50 µM; in the experiment on Plasmodium falciparum, over 10 µM.

Consider `COc1ccc(S(=O)(=O)N2CCN(C(=O)c3ccc(Cl)c(Cl)c3)CC2C(=O)NO)cc1` (configuration not stated), for which the 50% inhibitory concentration (IC50) is 6 µM at Falcilysin and over 10 µM in the experiment on Plasmodium falciparum.

Turning to `O=C(NO)C1CN(C(=O)c2cccc(F)c2)CCN1S(=O)(=O)c1ccccc1` (configuration not stated), the concentration for half-maximal inhibition (IC50) against Falcilysin is over 50 µM; with Plasmodium falciparum it was over 10 µM.

Turning to `CCCCN1CCN(S(=O)(=O)c2ccccc2)C(C(=O)NO)C1` (configuration not stated), the IC50 is over 50 µM against Falcilysin and over 10 µM with Plasmodium falciparum.

Regarding `COc1ccc(S(=O)(=O)N2CCN(C(=O)c3ccc(Br)cc3)CC2C(=O)NO)cc1` (configuration not stated), the IC50 against Falcilysin is 14 µM; with Plasmodium falciparum it was over 10 µM.
